Results published in PMC9950073, “Alleviation of arthritis through prevention of neutrophil extracellular traps by an orally available inhibitor of protein arginine deiminase 4” (Scientific Reports, 2023).

Assays:
[1] = Plasma protein binding (equilibrium dialysis); format: in vitro ADME; conditions: pH 7.4, plasma across species, read-out: PPB (% unbound)
Experimental: Plasma protein binding: 10 µM of JBI-589 was mixed with plasma from different species (in sodium phosphate buffer, pH 7.4) was added to the plasma side of the 96-well micro-equilibrium dialysis device and sodium phosphate buffer (pH 7.4) was added to the other half of the device. The device was incubated at 37 ± 1 °C for 14 h with constant shaking. After the incubation time, plasma and buffer were collected from either side, quenched (0.5% formic acid in internal standard (IS) containing ACN), centrifuged and supernatant was used for LC–MS/MS analysis. Percent of unbound compound was calculated as follows: Percent unbound: [peak area ratio in buffer side/dilution factor]/peak area ratio in plasma side × 100; Peak area ratio: compound peak area/internal standard peak area.

[2] = tested on: G-CSF-modified collagen-induced arthritis; test: G-CSF-modified collagen-induced arthritis model; format: in vivo, C57BL/6 mice
Experimental: C57BL/6 mice aged 8– 12 weeks were immunized with the emulsion of complete Freund's adjuvant (CFA, catalog number: 7023, Chondrex, Redmond, WA) and 100 μg of chicken type II collagen (catalog number: 20012, Chondrex) in a 1:1 mixture (total 100 μl) subcutaneously into the base of the tail on day 0[18]. The booster immunization of CII with incomplete Freund's adjuvant (catalog number: 7002, Chondrex) was performed on day 21. Recombinant human G-CSF (Filgrastim, Neupogen, Amgen, Inc., Thousand Oaks, CA) was injected at 10 μg peritoneally once daily from day 20 to day 23. Vehicle (water) or 50 mg/kg of JBI-589 was orally administered twice daily from day 20 to day 56. The severity of arthritis was evaluated using the following clinical scoring system for each limb: 0, normal; 1, swelling in one finger joint; 2, swelling in more than one finger joint or wrist or ankle joint; 3, swelling in the entire paw; and 4, deformity and or ankylosis. The maximum score was 16 per mouse. […] At the end of the study, all mice were euthanized after giving anesthesia using 2% isoflurane (Patterson Veterinary, catalog number: 07–893-2374). […]
H&E stain of joint tissue was performed following the previously described method.
Inflammation was scored on a scale of 0 (no inflammation) to 3 (severe inflamed joint) depending on the number of inflammatory cells in the synovial cavity (exudate) and synovial tissue (infiltrate)[39]. […]
Expressions of target proteins in synovial tissue on the joint surface of wrists and ankles were determined by immunoblotting. Synovial tissue was homogenized in radioimmunoprecipitation assay (RIPA) buffer (catalog number: 89901, Thermo Fisher Scientific) with protease inhibitor cocktails (catalog number: R0278, Sigma, St. Louis, MO) on ice. Following centrifugation at 20,000 g for 20 min at 4 °C, the protein content of the supernatant was determined by the Bradford protein assay (catalog number: 5000006, Bio-Rad Laboratories), and an equal amount of protein per sample was used. Protein lysate was resolved on gradient gels (Bolt 4–12% Bis–Tris Plus gels, catalog number: NW04122BOX, Life Technologies) and electroblotted on polyvinylidene difluoride (PVDF) membranes (catalog number: IB401001, Invitrogen) using the iBlot system (Thermo Fisher Scientific). After blocking with 5% BSA TBS-T buffer (0.05% Tween-20 in 1 × TBS) for 1 h at room temperature, the membranes were incubated with primary antibodies against myeloperoxidase (MPO, 1:500, catalog number: A0398, DAKO, Santa Clara, CA) or citrullinated histone H4 (H4Cit, 1: 1,000, catalog number: 07-596, Millipore, Burlington, MA) at 4 °C overnight, and subsequently with goat anti-rabbit IgG (H + L)- HRP (1:10,000, catalog number: 1706515, Bio-Rad) for 2 h at room temperature. Blots were developed with enhanced chemiluminescence substrate (catalog number: 32106, Thermo Fisher Scientific). Equal loading was confirmed by GAPDH (catalog number: G9545-200UL, 1: 10,000, Sigma). The intensity of the bands on blots was quantified using ImageJ software.

human recombinant PAD2 = target: T1, human recombinant PAD2 (Homo sapiens, UniProt Q9Y2J8); test: PAD2 selectivity biochemical assay measuring ammonia release; conditions: 10 semi-log concentrations, highest concentration tested 30 µM
T1 construct: purchased Cayman Chemicals 10785

human recombinant PAD6 = target: T2, human recombinant PAD6 (Homo sapiens, UniProt Q6TGC4); test: PAD6 selectivity biochemical assay measuring ammonia release; conditions: 10 semi-log concentrations, highest concentration tested 30 µM
T2 construct: purchased Signal Chem T1065-3
T2 sequence (Q6TGC4 1-694): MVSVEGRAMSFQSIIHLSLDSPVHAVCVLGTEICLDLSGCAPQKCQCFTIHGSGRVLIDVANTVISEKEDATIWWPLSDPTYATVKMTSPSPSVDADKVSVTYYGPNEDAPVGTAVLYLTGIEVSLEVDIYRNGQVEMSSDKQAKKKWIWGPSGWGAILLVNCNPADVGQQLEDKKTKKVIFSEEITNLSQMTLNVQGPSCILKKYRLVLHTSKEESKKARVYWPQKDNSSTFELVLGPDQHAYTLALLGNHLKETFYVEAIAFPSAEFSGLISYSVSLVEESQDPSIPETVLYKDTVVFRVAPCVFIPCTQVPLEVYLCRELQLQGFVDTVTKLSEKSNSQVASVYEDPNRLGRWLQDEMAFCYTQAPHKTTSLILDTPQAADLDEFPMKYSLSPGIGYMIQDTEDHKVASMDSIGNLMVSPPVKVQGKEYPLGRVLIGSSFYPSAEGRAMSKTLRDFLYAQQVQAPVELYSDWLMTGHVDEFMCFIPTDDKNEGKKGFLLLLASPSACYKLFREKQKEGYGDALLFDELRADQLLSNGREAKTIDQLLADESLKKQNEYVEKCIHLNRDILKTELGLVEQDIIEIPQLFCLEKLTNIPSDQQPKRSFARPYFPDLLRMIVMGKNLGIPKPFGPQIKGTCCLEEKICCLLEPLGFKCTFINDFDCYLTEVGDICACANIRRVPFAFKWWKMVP

[3] = Microsomal stability, HLM; format: in vitro ADME, human; conditions: 1 µM, liver microsomes 0.5 mg/mL; one range given for HLM/MLM/DLM/RLM
Experimental: (§1) Microsomal stability: Liver microsomes (0.5 mg/mL) from different species were incubated with JBI-589 (1 µM) with or without NADPH (1 mM) at 37 °C for 30 min in potassium phosphate buffer (pH 7.4) and then reaction was stopped with quenching solution (0.5% Formic acid in internal standard (IS) containing ACN). Resulting samples were centrifuged and supernatant was taken for LC–MS/MS analysis. Percent metabolism was calculated as follows: % Metabolized: [1 − (test area ratio/control area ratio)] *100.

[4] = Microsomal stability, RLM; format: in vitro ADME, rat; conditions: 1 µM, liver microsomes 0.5 mg/mL; one range given for HLM/MLM/DLM/RLM
Experimental: as §1

[5] = 50 mg/kg orally twice daily day 20 to day 56

T1 sequence (Q9Y2J8 whole entry): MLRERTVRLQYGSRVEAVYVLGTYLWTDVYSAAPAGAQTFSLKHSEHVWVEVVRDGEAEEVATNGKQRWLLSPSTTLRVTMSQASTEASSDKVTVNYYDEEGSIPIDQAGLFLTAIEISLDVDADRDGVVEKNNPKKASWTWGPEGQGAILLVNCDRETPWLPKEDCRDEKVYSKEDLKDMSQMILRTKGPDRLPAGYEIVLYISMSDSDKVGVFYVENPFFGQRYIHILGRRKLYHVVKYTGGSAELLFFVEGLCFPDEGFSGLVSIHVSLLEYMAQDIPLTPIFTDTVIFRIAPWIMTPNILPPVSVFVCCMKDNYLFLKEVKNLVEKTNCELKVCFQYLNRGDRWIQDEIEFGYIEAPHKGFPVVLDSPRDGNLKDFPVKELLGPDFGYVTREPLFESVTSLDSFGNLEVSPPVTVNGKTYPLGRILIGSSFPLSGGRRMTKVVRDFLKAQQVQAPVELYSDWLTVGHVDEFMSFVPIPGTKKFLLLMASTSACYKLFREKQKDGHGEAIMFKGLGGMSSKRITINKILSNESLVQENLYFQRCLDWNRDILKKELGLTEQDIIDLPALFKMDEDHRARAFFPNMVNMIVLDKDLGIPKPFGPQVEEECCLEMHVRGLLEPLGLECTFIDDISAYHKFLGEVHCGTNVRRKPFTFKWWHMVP

Cc1c(-c2cc3ccccc3n2Cc2ccc(F)cc2)nc2cc(C(=O)N3CCC[C@@H](N)C3)ccn12 [JBI-589, (R)-(3-aminopiperidin-1-yl)(2-(1-(4-fluorobenzyl)-1H-indol-2-yl)-3-methylimidazo[1,2-a]pyridin-7-yl)methanone]
fraction unbound at 14 h, 10 µM [1]: 0.05 to 0.1
effect on arthritis incidence [2, 5]: significant effect
effect on arthritis severity [2, 5]: significant effect
lesions positive for H3Cit and Ly6G and DNA within the joint space and on the bone surface (immunofluorescence) ([2]; ankle joints day 56, present in vehicle-treated mice): not in JBI-589-treated mice
eroded surface of bones (micro-CT) ([2]; ankle joints, vs control mice): fewer areas of eroded surface
plasma levels of H3Cit ([2]; day 22, vs vehicle): lower
serum IL-6 ([2]; day 56, vs vehicle): reduced
serum anti-Collagen Type II (CII) IgG2c antibody level ([2]; day 56, vs vehicle): comparative
serum anti-Collagen Type II (CII) IgG antibody level ([2]; day 56, vs vehicle): comparative
H4Cit in synovial tissue (western blot) ([2]; vs vehicle): less
Myeloperoxidase (MPO) in synovial tissue (western blot) ([2]; vs vehicle): less
inflammation (exudate and infiltrate), H&E staining of ankle joint ([2]; vs vehicle): alleviated severity of arthritis
serum anti-H3Cit antibody ([2]; vs vehicle): less
inhibitory activity against PAD2 (human recombinant PAD2): did not have any inhibitory activity
inhibitory activity against PAD6 (human recombinant PAD6): did not have any inhibitory activity
HLM % metabolized @ 30 min [3]: 25-50%
RLM % metabolized @ 30 min [4]: 25-50%
